Laboratory results taken from patent publication US20250262273A1, “MODIFIED CAVEOLIN-1 PEPTIDES FOR THE TREATMENT OF CHRONIC KIDNEY DISEASE” (Rein Therapeutics, Inc., priority 2021, published 2025).
Several values for one entry are separate records, joined by “and”; a condition that tells them apart may be missing. Equal entries are not always repeated. Non-standard residues stand in square brackets, D forms with d.

Experiments:
[1] = system: Col4a3−/− mice on a 129S1/SvlmJ background; experiment: Col4a3−/− mouse model of Alport syndrome, Study 2: four weeks of treatment; type: in vivo; details: for Moderately Sclerotic Glom / Severely Sclerotic Glom / Moderately Sclerotic Glom (%) / Sclerotic Glom (%) / Severely Sclerotic Glom (%): 8 week-old, 4 weeks daily i.p. 0.0022 mg/g; for Moderately Sclerotic Glom / Severely Sclerotic Glom: count per individual mouse; for Moderately Sclerotic Glom (%) / Sclerotic Glom (%) / Severely Sclerotic Glom (%): per individual mouse
Description: (§1) The objective of this study was to evaluate the efficacy of the modified Cav-1 peptide APi2355 in ameliorating kidney fibrosis and disease using the Col4a3−/− mouse model of Alport syndrome. Alport syndrome mice (knockouts) have reduced Cav-1 expression in glomerulae tubules and develop glomerular fibrosis.
Four week-old Col4a3−/− mice on a 129S1/SvlmJ background were intraperitoneally injected daily with APi2355 (SEQ ID NO: 8, 0.0022 mg/g body weight) or with normal saline for 4 weeks. Urine was collected prior to treatment at 4 weeks-old and at 6, 7, and 8-weeks-old following treatment to monitor for glomerular permselectivity by measuring albumin to creatinine (A/C) ratios. Blood was collected prior to treatment at 4 weeks-old and at 6 and 8 weeks-old following treatment to monitor for glomerular filtration rate using the BUN assay and kidney tissue was collected following sacrifice to assess for renal injury and fibrosis. Mouse identification numbers were used to differentiate treatment groups.

[2] = system: Col4a3−/− mice on a 129S1/SvlmJ background; experiment: Col4a3−/− mouse model of Alport syndrome, Study 1: two weeks of treatment; type: in vivo; details: for immunofluorescence staining of collagen I and nidogen on kidney tissue / immunofluorescence staining of collagen I and αSMA on kidney tissue: 0.0022 mg/g i.p. daily for 2 weeks, same finding in saline-treated mice
Excerpt: as §1
Col4a3−/− on the 129S1/SvlmJ develop end-stage renal disease at a faster rate compared to Col4a3−/− mice on the C57BL/6 background. Five week-old (Cohort 2) and 6 week-old (Cohort 1) Col4a3−/− mice on a 129S1/SvlmJ background were intraperitoneally injected daily with APi2355 (SEQ ID NO: 8, 0.0022 mg/g body weight) or with normal saline for 2 weeks. Urine was collected prior to treatment and on the day of sacrifice to monitor for glomerular permselectivity by measuring albumin to creatinine (A/C) ratios. Blood was collected on the day of sacrifice to monitor for glomerular filtration rate by blood urea nitrogen (BUN) assay and kidney tissue was collected following sacrifice to assess for renal injury and fibrosis. Mouse identification numbers were used to differentiate treatment groups.

[3] = system: bleomycin-treated aged male mice; experiment: Bleomycin model of lung fibrosis in aged mice, Study 1 (Total Collagen Assay); type: in vivo, mouse; details: bleomycin 4 U/kg intratracheal, mice 74 to 76 weeks-old, dry powder inhalation, compared to control peptide
Excerpt: (§2) The objective of this study was to evaluate the modified Cav-1 peptide CSP-7 in a bleomycin model of idiopathic pulmonary fibrosis and acute respiratory distress syndrome (ARDS). Aged male mice were selected to closely match the population of humans most vulnerable to ARDS.
Aged male mice, which have a higher burden of senescent cells and therefore less regenerative potential, were used to test the efficacy of CSP-7 (SEQ ID NO: 3). Mice were between 74 to 76 weeks-old at the time of intratracheal bleomycin installation (4 U/kg body weight; n=5-8 mice/group). The Total Collagen Assay (QuickZyme Biosciences) was used to assess total collagen in lung tissue, which first hydrolyzes proteins in the lung homogenate then oxidizes hydroxyproline and stains.

[4] = system: BLM-treated aged mice; experiment: Bleomycin model of lung fibrosis in aged mice, Study 2; type: in vivo; details: BLM 8 U/kg intratracheal, 73-74 week-old mice, 0.5 mg/mouse dry powder inhalation from day 14, sacrifice day 21, compared to control peptide
Description: as §2
Bleomycin (BLM, 8 U/kg) was administered intratracheally to 73-74 week-old mice (n=52) expecting approximately 50% loss of mice due to BLM-induced lung injury. On day 14 post-instillation, CSP-7 and a control peptide (CP) was administered to mice via dry powder inhalation (DPI) or intraperitoneal injection (IP) as shown in Table B below. On day 21 post-instillation, mice were sacrificed and blood and tissues were collected for analysis. Statistics were performed using Dunnett's multiple comparison test.

[5] = treatment starting at 4 weeks of age, 4 weeks, vs saline
[6] = Cohort 1 (treatment start 6 weeks-old)
[7] = Cohort 2 (treatment start 5 weeks-old)

## Ac-aaEGKASFTTFTVTKGSaa-NH2 (Ac-[dA][dA]EGKASFTTFTVTKGS[dA][dA]-NH2; SMILES CC(=O)N[C@H](C)C(=O)N[C@H](C)C(=O)N[C@@H](CCC(=O)O)C(=O)NCC(=O)N[C@@H](CCCCN)C(=O)N[C@@H](C)C(=O)N[C@@H](CO)C(=O)N[C@@H](Cc1ccccc1)C(=O)N[C@H](C(=O)N[C@H](C(=O)N[C@@H](Cc1ccccc1)C(=O)N[C@H](C(=O)N[C@H](C(=O)N[C@H](C(=O)N[C@@H](CCCCN)C(=O)NCC(=O)N[C@@H](CO)C(=O)N[C@H](C)C(=O)N[C@H](C)C(N)=O)[C@@H](C)O)C(C)C)[C@@H](C)O)[C@@H](C)O)[C@@H](C)O) [APi2355, modified Cav-1 peptide]
[1]; female Col4a3−/− mice
  Moderately Sclerotic Glom: 0 and 1 (2×)
  Severely Sclerotic Glom: 4
  Moderately Sclerotic Glom (%): 0.0% and 2.0% and 2.1%
  Sclerotic Glom (%): 7.4% and 9.8% and 10.6%
  Severely Sclerotic Glom (%): 7.4% and 7.8% and 8.5%
[1]; females, treatment starting at 4 weeks of age, 4 weeks, vs saline
  percentage of sclerotic glomeruli as assayed by collagen I deposition: reduced the percentage of sclerotic glomeruli in females
[1]; male Col4a3−/− mouse
  Moderately Sclerotic Glom: 6
  Severely Sclerotic Glom: 21
  Moderately Sclerotic Glom (%): 15.0%
  Sclerotic Glom (%): 67.5%
  Severely Sclerotic Glom (%): 52.5%
[1]; mouse model of Alport syndrome, overall conclusion
  glomerular fibrosis: reduced glomerular fibrosis
[1]; [5]
  progression of BUN: did not slow the progression
  progression of albuminuria: did not slow the progression
[2]; [6]
  immunofluorescence staining of collagen I and nidogen on kidney tissue: additional staining in sclerotic glomeruli
  immunofluorescence staining of collagen I and αSMA on kidney tissue: additional staining in sclerotic glomeruli
[2]; Cohort 1 and Cohort 2, 2 weeks of treatment, same in saline-treated mice
  kidney sclerosis, overall: severe sclerosis in the interstitium and many sclerotic glomeruli
[2]; [7]
  immunofluorescence staining of collagen I and nidogen on kidney tissue: additional staining in sclerotic glomeruli
  immunofluorescence staining of collagen I and αSMA on kidney tissue: additional staining in sclerotic glomeruli

## FTTFTVT (Modified Caveolin-1 peptide) [CSP-7, seven amino acid fragment of the human CSD of caveolin-1]
[3]
  total collagen in the lung: reduction in total collagen
[4]
  total collagen in the lung: reduction in total collagen
